Our source for the T/C values is PubChem BioAssay AID200 (DTP/NCI, 2004).

Structures are written as SMILES. Where “and” joins values, the source holds several entries; their conditions need not be identical. Identical values can stand only once. Inconclusive results and toxic doses are left out.

The test system of this experiment is B6C3F1 mice, B16 melanoma ip, median survival T/C. The experiment is described as follows: NCI In Vivo Anticancer Drug Screen. Data for tumor model B16 Melanoma (intraperitoneal) in B6C3F1 mice. Particulars: endpoint: median survival time, schedule: Q01DX009 (ip), higher = longer survival. Put shortly: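 Transplantable tumor in mice; treated vs vehicle control groups; survival or tumor size measured; value = T/C ratio.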

Where [1] appears, read: dose: 25.0 mg/kg/injection, vehicle: saline with Tween-80.
The mark [2] stands for this setting: dose: 50.0 mg/kg/injection, vehicle: saline with Tween-80.
[3] abbreviates: dose: 100.0 mg/kg/injection, vehicle: saline with Tween-80.
The mark [4] stands for this setting: dose: 200.0 mg/kg/injection, vehicle: saline with Tween-80.
[5] abbreviates: dose: 25.0 mg/kg/injection, vehicle: Klucel (hydroxypropylcellulose) (HPC).
Setting [6] is: dose: 50.0 mg/kg/injection, vehicle: Klucel (hydroxypropylcellulose) (HPC).
[7] abbreviates: dose: 100.0 mg/kg/injection, vehicle: Klucel (hydroxypropylcellulose) (HPC).
Setting [8] is: dose: 12.5 mg/kg/injection, vehicle: saline with Tween-80.
Where [9] appears, read: dose: 25.0 mg/kg/injection, vehicle: saline.
The mark [10] stands for this setting: dose: 50.0 mg/kg/injection, vehicle: saline.
The mark [11] stands for this setting: dose: 100.0 mg/kg/injection, vehicle: saline.
The mark [12] stands for this setting: dose: 200.0 mg/kg/injection, vehicle: saline.

Take `C=C(OC)C(Nc1cc(OC)c(OC)cc1C(=O)OC1CC(O[C@@H]2C(=O)C(NC(=O)OC)=C3/C(=C\CSSSC)[C@]2(O)C#C/C=C\C#C[C@@H]3OC2OC(C)C(NOC3CC(O)C(SC)C(C)O3)C(O)C2OC2CC(OC)C(NCCC)CO2)OC(C)C1O)OC` (stereo partly specified): the T/C is, setting by setting: (dose: 0.16 micrograms/kg/injection, vehicle: saline + alcohol) 191 % of control; (dose: 0.32 micrograms/kg/injection, vehicle: saline + alcohol) 162 % of control; (dose: 0.63 micrograms/kg/injection, vehicle: saline + alcohol) 170 % of control; (dose: 2.5 nanograms/kg/injection, vehicle: saline + alcohol) 119 % of control; (dose: 4.0 nanograms/kg/injection, vehicle: saline + alcohol) 93 % of control; (dose: 5.0 nanograms/kg/injection, vehicle: saline + alcohol) 109 % of control. The T/C by setting is: (dose: 14.0 nanograms/kg/injection, vehicle: saline + alcohol) 102 % of control; (dose: 20.0 nanograms/kg/injection, vehicle: saline + alcohol) 155 % of control; (dose: 24.0 nanograms/kg/injection, vehicle: saline + alcohol) 103 % of control; (dose: 40.0 nanograms/kg/injection, vehicle: saline + alcohol) 219 % of control and 101 % of control; (dose: 66.67 nanograms/kg/injection, vehicle: saline + alcohol) 96 % of control; (dose: 111.11 nanograms/kg/injection, vehicle: saline + alcohol) 97 % of control.

For the compound `CCCCCCNc1nc(NCCCCCC)c2[nH]c(NCCCCCC)nc2n1`, the T/C by setting is: under setting [1], 107 % of control; under setting [2], 101 % of control; under setting [3], 96 % of control; under setting [4], 91 % of control.

Consider `CCc1ccc(C2=C(O)C(=O)C(c3ccccc3)=C(O)C2=O)cc1`, for which the T/C was 112 % of control (dose: 3.12 mg/kg/injection, vehicle: Klucel (hydroxypropylcellulose) (HPC)); 106 % of control (dose: 6.25 mg/kg/injection, vehicle: Klucel (hydroxypropylcellulose) (HPC)); 108 % of control (dose: 12.5 mg/kg/injection, vehicle: Klucel (hydroxypropylcellulose) (HPC)); 114 % of control under setting [5]; 114 % of control under setting [6]; 108 % of control under setting [7].

For the compound `C1CC[N-]CC1.[Cl][Pt+2][Cl].[NH-]C1CC1`, the T/C is, setting by setting: (dose: 1.56 mg/kg/injection, vehicle: saline with Tween-80) 117 % of control; (dose: 3.12 mg/kg/injection, vehicle: water) 106 % of control; (dose: 6.25 mg/kg/injection, vehicle: water) 116 % of control; under setting [8], 159 % of control.

As for `CCC(=O)Sc1ccccc1C(=O)Nc1ccc(Cl)cc1`, the T/C under setting [1] was 104 % of control, the T/C under setting [2] is 117 % of control, the T/C under setting [3] was 108 % of control and the T/C under setting [4] is 115 % of control.

For the compound `C/C=C(\C)c1cc(=O)c2c(C)cc3c(c2o1)C(=O)c1c(O)c(C2CC(C)(N(C)C)C(OC(C)=O)C(C)O2)cc(C2CC(N(C)C)C(O)C(C)O2)c1C3=O` (stereo unspecified), the T/C runs as follows: (dose: 0.15 mg/kg/injection, vehicle: saline) 110 % of control; (dose: 0.15 mg/kg/injection, vehicle: suspension in saline) 102 % of control; (dose: 0.31 mg/kg/injection, vehicle: suspension in saline) 114 % of control; (dose: 0.62 mg/kg/injection, vehicle: suspension in saline) 109 % of control.

Take `O=C1CC2(C(=O)N1CN1CCOCC1)c1ccccc1-c1ccccc12`: the T/C was 93 % of control under setting [7]; 98 % of control (dose: 200.0 mg/kg/injection, vehicle: Klucel (hydroxypropylcellulose) (HPC)); 93 % of control (dose: 400.0 mg/kg/injection, vehicle: Klucel (hydroxypropylcellulose) (HPC)).

Consider `CCC1=C[C@H]2CN(CCc3c([nH]c4ccccc34)[C@@](OC(C)=O)(c3cc4c(cc3OC)N(C)[C@H]3[C@@](O)(C(=O)NCCSc5ccccc5)[C@H](O)[C@]5(CC)C=CCN6CC[C@]43[C@@H]65)C2)C1`, for which the T/C by setting is: (dose: 0.25 mg/kg/injection, vehicle: water) 107 % of control; (dose: 1.0 mg/kg/injection, vehicle: water) 118 % of control; (dose: 2.0 mg/kg/injection, vehicle: water) 124 % of control.

As for `CC(=O)Oc1c(C)[nH]ccc1=O`, the T/C was 93 % of control and 104 % of control under setting [9]; 108 % of control and 105 % of control under setting [10]; 115 % of control and 94 % of control under setting [11]; 94 % of control and 106 % of control under setting [12].

Take `C[CH2][Ge]([CH2]C)[CH2]C.C[CH2][Ge]([CH2]C)[CH2]C.C[CH2][Ge]([CH2]C)[O][Ge]([CH2]C)[CH2]C`: the T/C is, setting by setting: (dose: 3.13 mg/kg/injection, vehicle: saline with Tween-80) 89 % of control; (dose: 6.25 mg/kg/injection, vehicle: saline with Tween-80) 93 % of control; under setting [8], 87 % of control.

For the compound `CC1[C@@H]2CC=C3[C@H]4CCC5Cc6nc7c(nc6C[C@@]5(C)C4CC(=O)[C@]32CO[C@]12OC(C)(C)CC2O)CC1CC[C@@H]2C3=C[C@H]4O[C@@]5(O[C@@](C)(CO)C[C@@H]5O)C(C)[C@@]4(O)[C@]3(C)[C@@H](O)CC2[C@]1(C)C7` (stereo partly specified), the T/C reads like this: (dose: 6.25 micrograms/kg/injection, vehicle: saline + alcohol) 101 % of control; (dose: 12.5 micrograms/kg/injection, vehicle: saline + alcohol) 98 % of control; (dose: 25.0 micrograms/kg/injection, vehicle: saline + alcohol) 98 % of control; (dose: 50.0 micrograms/kg/injection, vehicle: saline + alcohol) 102 % of control.

Regarding `O=C1C=C(Nc2ccccc2)c2ccccc2C1=O`, the T/C under setting [5] is 104 % of control, the T/C under setting [6] is 96 % of control and the T/C under setting [7] is 91 % of control.

Regarding `CCCCCC[C@@H](O)C/C=C\CCCCCCCC(=O)OCCO`, the T/C by setting is: under setting [9], 101 % of control; under setting [10], 110 % of control; (dose: 75.0 mg/kg/injection, vehicle: saline) 102 % of control; under setting [11], 122 % of control; (dose: 150.0 mg/kg/injection, vehicle: saline) 97 % of control; under setting [12], 101 % of control. The T/C is 100 % of control (dose: 300.0 mg/kg/injection, vehicle: saline); 103 % of control (dose: 400.0 mg/kg/injection, vehicle: saline); 95 % of control (dose: 600.0 mg/kg/injection, vehicle: saline); 96 % of control (dose: 800.0 mg/kg/injection, vehicle: saline); 96 % of control (dose: 1200.0 mg/kg/injection, vehicle: saline).

Consider `CN1CCN(CCCN2c3ccccc3Sc3ccc(C(F)(F)F)cc32)CC1`, for which the T/C (dose: 3.12 mg/kg/injection, vehicle: saline) is 100 % of control; the T/C (dose: 6.25 mg/kg/injection, vehicle: saline) was 106 % of control; the T/C (dose: 8.0 mg/kg/injection, vehicle: saline) is 107 % of control; the T/C (dose: 12.5 mg/kg/injection, vehicle: saline) is 98 % of control; the T/C (dose: 16.0 mg/kg/injection, vehicle: saline) is 93 % of control; the T/C (dose: 32.0 mg/kg/injection, vehicle: saline) was 87 % of control.
